Tests used:
mice [1] = assay: Hypercalcemia assay: murine hypercalcemia model, single SC injection, blood ionized calcium; type: in vivo; details: single SC injection, equimolar doses, blood ionized calcium
Protocol: Mice were challenged with vehicle (PBS, —X—), or with PTH-(1-34) (open symbols) or with PTH-(1-34)-Fc (closed symbols). Doses were 156 nmol/kg (circles), 469 nmol/kg (triangles) or 1,560 nmol/kg (squares). Data represent group means, n=6 mice/group.
We tested the potency and duration of effect of PTH-(1-34)-Fc in a murine hypercalcemia model. Briefly, mice were injected once SC with varying doses of PTH-(1-34) or PTH-(1-34)-Fc, and peripheral blood was collected from the retroorbital sinus for determination of blood ionized calcium. The half-life and the potency of PTH-(1-34)-Fc was greater than that of PTH-(1-34), as evidenced by the sustained hypercalcemic response of mice to the former agent (FIG. 4). Hypercalcemia induced by PTH-(1-34) persisted for 6-24 h, while equimolar doses of PTH-(1-34)-Fc caused more sustained hypercalcemia (48-72 h). This duration of response is consistent with greater half-life of the PTH-(1-34)-Fc construct vs. PTH-(1-34).

Sprague Dawley (SD) rats = assay: Anabolic assay: lumbar (L3) BMD by DEXA, PTH constructs with or without OPG-Fc; type: in vivo; details: 6-month-old male SD rats, DEXA Day 7; OPG-Fc 1 mg/kg once; PTH-(1-34) 20 nMoles/kg x3; PTH-(1-34)-Fc 60 nMoles/kg once
Protocol: Briefly, 6-month-old male Sprague Dawley (SD) rats were divided into groups of 6. Baseline bone mineral density (BMD) was determined in the third lumbar vertebra (L3) of all rats by dual-energy X-ray absorptiometry (DEXA) (Day 0). Rats were then treated according to the following schedule:
Group 1: Vehicle controls (PBS, injected SC, Days 1, 3, and 5)
Group 2: OPG-Fc, single SC injection (1 mg/kg) on Day 1
Group 3: PTH-(1-34), SC injections on Days 1, 3, and 5, at 20 nMoles PTH/kg/injection. This represents an optimal anabolic PTH regimen.
Group 4: Same as group 3, but with a single OPG-Fc injection on Day 1.
Group 5: Single SC injection of PTH-(1-34)-Fc at 60 nMoles/kg, on Day 1. This represents a molar dose which is equivalent to the total dose of PTH-(1-34) received by group 3, but in a single injection.
Group 6: Same as group 5, but with a single OPG-Fc injection (SC, 1 mg/kg) on Day 1.
DEXA of the lumbar spine was performed again on Day 7 to evaluate changes in BMD. […] The anabolic effect of a single treatment with PTH-(1-34)-Fc plus OPG-Fc was greater than that induced by multiple injections of PTH-(1-34), with or without OPG-Fc co-treatment.
Normal 6 month old male rats were treated with PTH-Fc or PTH or vehicle by a single SC injection. Some rats also received a single SC injection of OPG. BMD was determined 7 days later by DEXA. Data represent means+SD, N=6 rats/group.

[2] = tested on: rat osteoblast-like ROS 17/2.8 cells; assay: cAMP accumulation assay (IBMX, 15 minute challenge, ELISA); type: cell-based; details: 15 minutes
Protocol: Cultures were treated with the phosphodiesterase inhibitor IBMX and then challenged for 15 minutes with various PTH fragments. CAMP was measured by ELISA.
We tested the relative ability of PTH-Fc constructs to stimulate cAMP accumulation in rat osteoblast-like ROS 17/2.8 cells. Cultures were treated with the phosphodiesterase inhibitor IBMX to promote the accumulation of cAMP. Cultures were then challenged for 15 minutes with either vehicle (PBS), or various PTH constructs.

mice [3] = assay: Mouse bioassay: SC injection days 0, 5, 10; clinical chemistry (calcium, AP, TRAP) and tibial pQCT; type: in vivo
Protocol: Peripheral blood was obtained daily for 3 days following single subcutaneous injections of the indicated compounds.
Peripheral quantitative computed tomography (pQCT) was performed on the proximal tibial metaphysis of mice on day 15, after injections of PTH constructs on day 0, 5 and 10.
We then tested the effects of PTH-(1-34), PTH-(1-34)-Fc, PTH-(1-31)-Fc and PTH-(1-30)-Fc in mice. Four week old male mice were injected on days 0, 5, and 10 with vehicle or with PTH fragments, by SC injection. Peripheral blood was obtained for clinical chemistry at 24, 48, and 72 h. Mice were killed on day 15, vertebrae, tibiae and femurs were harvested for histology and one tibia was collected for bone density measurements (peripheral quantitative computed tomography, pQCT). Clinical chemistry endpoints included total serum calcium, serum alkaline phosphatase (AP, a marker of osteoblast activity), and serum tartrate-resistant acid phosphatase (TRAP, a marker of osteoclast activity). For each animal, the ratio of AP:TRAP was calculated as an index of relative osteoblast activity compared to osteoclast activity. A higher AP:TRAP ratio would indicate a potentially more anabolic agent.

male BDF1 mice = assay: Monotherapy in adult mice: twice-weekly PTH-(1-34)-Fc versus daily PTH-(1-34), tibial BMD by pQCT; type: in vivo; details: 3 weeks, PTH-(1-34)-Fc twice weekly, various doses
Protocol: Daily PTH [PTH-(1-34)] was given at 80 μg/kg/day (20 nmol/kg/day).
Briefly, male BDF1 mice (4 months of age) were treated twice per week by subcutaneous injection with various doses of PTH-(1-34)-Fc or with vehicle (PBS). Other mice were treated daily with SC injections of PTH-(1-34) at a dose of 80 μg/kg/day (20 nmol/kg/day), a treatment regimen which is optimal for increasing bone mass in rodents (M. Gunness-Hey and J. M. Hock, Metab. Bone Dis. & Rel. Res. 5:177-181, 1984). After 3 weeks, mice were sacrificed and tibiae were analyzed for bone mineral density (BMD) via pQCT (FIG. 10).

mice [4] = details: non-Fc conjugated peptide, stated as usual behaviour; cited from earlier work

Substance: human PTH(1-34) [PTH-(1-34), reference compound]
- duration of hypercalcemia (mice [1]): 6 to 24 h
- BMD in L3 compared to PBS-treated rats (Sprague Dawley (SD) rats): increased modestly
- potency in cAMP accumulation relative to PTH-(1-31)-Fc and PTH-(1-30)-Fc [2]: slightly more potent
- calculated AP:TRAP ratio (mice [3]; 300 nmoles/kg): unchanged
- serum AP (osteoblast marker) (mice [3]; 300 nmoles/kg (given for PTH-(1-34)-Fc), 72 h): unchanged
- serum calcium (mice [3]; 300 nmoles/kg SC (equimolar), 24, 48, 72 h): not significantly different
- bone mineral density (proximal tibial metaphysis) (mice [3]; 300 nmoles/kg on day 0, 5, 10, pQCT day 15): modest (non-significant) anabolic effect
- serum TRAP (osteoclast marker) (mice [3]; mice, after single SC injection): not significantly changed
- cancellous BMD compared to vehicle (male BDF1 mice; PTH-(1-34) daily 80 μg/kg/day): significantly increased
- total tibial BMD compared to vehicle (male BDF1 mice; PTH-(1-34) daily 80 μg/kg/day): significantly increased
- cortical BMD in the tibia (male BDF1 mice; PTH-(1-34) daily): not significantly enhanced
- duration of transient increase in serum calcium normally caused (mice [4]): 12 h
